Results reported in ChEMBL document CHEMBL1201862, “PubChem BioAssay data set” (2004).
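Test compounds were applied to cells in 96-well plates for 48 hours at 5 doses. Abbreviation: GI50, concentration required for 50% inhibition of growth.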 The source made the active and inactive calls. Cut-off read from the data, not from the text of the source: active = GI50 up to about 1.1 µM and inactive = higher.

Experiments:
Assay in all cases: growth of human tumour cells (NCI), 48 h
MDA-N = system: MDA-N
CCRF-CEM = system: CCRF-CEM
U-251 = system: U-251
SK-MEL-2 = system: SK-MEL-2
HOP-62 = system: HOP-62
UO-31 = system: UO-31
OVCAR-8 = system: OVCAR-8
HL-60 = system: HL-60
SK-MEL-5 = system: SK-MEL-5
PC-3 = system: PC-3
IGROV-1 = system: IGROV-1
SK-OV-3 = system: SK-OV-3
OVCAR-5 = system: OVCAR-5
SNB-75 = system: SNB-75
SW-620 = system: SW-620
OVCAR-3 = system: OVCAR-3
A498 = system: A498

Row | Compound | GI50 (MDA-N) | GI50 (CCRF-CEM) | GI50 (U-251) | GI50 (SK-MEL-2) | GI50 (HOP-62) | GI50 (UO-31) | GI50 (OVCAR-8) | GI50 (HL-60) | GI50 (SK-MEL-5) | GI50 (PC-3) | GI50 (IGROV-1) | GI50 (SK-OV-3) | GI50 (OVCAR-5) | GI50 (SNB-75) | GI50 (SW-620) | GI50 (OVCAR-3) | GI50 (A498)
1 | COc1ccc(/C=C(\C#N)c2ccccn2)cc1OC | 42.4 µM (inactive) | 60.5 µM (inactive) | 16.3 µM (inactive) | 51.2 µM (inactive) | 36.7 µM (inactive) | 29.8 µM (inactive) | > 100 µM (inactive) | 27.1 µM (inactive) | 25.1 µM (inactive) | 22.8 µM (inactive) | 51.2 µM (inactive) | 29.8 µM (inactive) | 51.4 µM (inactive) | 21.3 µM (inactive) | 56.1 µM (inactive) | 86.1 µM (inactive) | –
2 | Cc1[nH]c2ccccc2c1C1Cc2ccccc2N1C(=O)C#Cc1ccc([N+](=O)[O-])cc1 (centres undefined) | – | 19.2 µM (inactive) | > 100 µM (inactive) | – | > 100 µM (inactive) | 51.9 µM (inactive) | > 100 µM (inactive) | > 100 µM (inactive) | – | – | > 100 µM (inactive) | > 100 µM (inactive) | > 100 µM (inactive) | > 100 µM (inactive) | > 100 µM (inactive) | > 100 µM (inactive) | > 100 µM (inactive)
3 | CC(C)N(C(=O)C12C3C4C5(C#N)C3C1(C#N)C5C42I)C(C)C (centres undefined) | – | > 39.9 µM (inactive) | > 100 µM (inactive) | > 100 µM (inactive) | > 100 µM (inactive) | > 100 µM (inactive) | > 85.5 µM (inactive) | > 41 µM (inactive) | > 100 µM (inactive) | – | > 100 µM (inactive) | > 100 µM (inactive) | > 100 µM (inactive) | > 59 µM (inactive) | > 41.4 µM (inactive) | > 100 µM (inactive) | > 100 µM (inactive)
4 | COc1ccccc1NC(=O)C1=C(C)NC(C)=C(C(=O)Nc2ccccc2OC)C1c1ccc(C(C)C)cc1 | – | – | 84.3 µM (inactive) | > 100 µM (inactive) | > 100 µM (inactive) | 29 µM (inactive) | > 100 µM (inactive) | – | 38.9 µM (inactive) | – | > 100 µM (inactive) | > 100 µM (inactive) | > 100 µM (inactive) | 27 µM (inactive) | > 100 µM (inactive) | > 100 µM (inactive) | > 100 µM (inactive)
5 | COc1ccc(/C=N/NS(=O)(=O)c2ccccc2)cc1 | – | > 100 µM (inactive) | > 100 µM (inactive) | > 100 µM (inactive) | > 100 µM (inactive) | > 100 µM (inactive) | > 100 µM (inactive) | > 100 µM (inactive) | > 100 µM (inactive) | – | > 100 µM (inactive) | > 100 µM (inactive) | > 100 µM (inactive) | > 100 µM (inactive) | > 100 µM (inactive) | > 100 µM (inactive) | > 100 µM (inactive)
6 | CCN(CC)c1ccc2c(c1)Nc1cc(=C(C#N)C#N)c3ccccc3c1=N2 | – | – | > 100 µM (inactive) | > 100 µM (inactive) | > 100 µM (inactive) | > 100 µM (inactive) | 61 µM (inactive) | > 100 µM (inactive) | > 100 µM (inactive) | – | > 100 µM (inactive) | > 100 µM (inactive) | > 100 µM (inactive) | > 100 µM (inactive) | 59 µM (inactive) | > 100 µM (inactive) | > 100 µM (inactive)
7 | CCN(c1ccc(Br)cc1)c1c(Br)c(=O)nc2ccccn12 | – | > 100 µM (inactive) | > 100 µM (inactive) | > 100 µM (inactive) | > 100 µM (inactive) | 35.7 µM (inactive) | > 100 µM (inactive) | – | 59.8 µM (inactive) | – | > 100 µM (inactive) | 51.5 µM (inactive) | > 100 µM (inactive) | > 100 µM (inactive) | > 100 µM (inactive) | > 100 µM (inactive) | > 100 µM (inactive)
8 | CC[C@@H]1NC(C(=O)OC)Cc2c1[nH]c1ccccc21 (some centres undefined) | – | > 100 µM (inactive) | > 100 µM (inactive) | > 100 µM (inactive) | – | > 100 µM (inactive) | > 100 µM (inactive) | > 100 µM (inactive) | > 100 µM (inactive) | – | > 100 µM (inactive) | > 100 µM (inactive) | > 100 µM (inactive) | > 100 µM (inactive) | > 100 µM (inactive) | > 100 µM (inactive) | > 100 µM (inactive)
9 | CC(/C=C/C(=O)c1sc(-n2nc(-c3ccccc3)cc2-c2ccccc2)nc1C)=C\c1ccccc1 | – | 27.7 µM (inactive) | 65.2 µM (inactive) | 34.3 µM (inactive) | > 10 µM (inactive) | 24 µM (inactive) | 17.5 µM (inactive) | 36.3 µM (inactive) | 15.5 µM (inactive) | – | 98.4 µM (inactive) | 38.4 µM (inactive) | > 10 µM (inactive) | 2.02 µM (inactive) | > 10 µM (inactive) | 26.7 µM (inactive) | > 10 µM (inactive)
10 | C=CCONC(=O)c1ccc(Cl)cc1 | – | > 100 µM (inactive) | > 100 µM (inactive) | > 100 µM (inactive) | > 100 µM (inactive) | > 100 µM (inactive) | > 100 µM (inactive) | > 100 µM (inactive) | > 100 µM (inactive) | – | > 100 µM (inactive) | > 100 µM (inactive) | > 100 µM (inactive) | 84.1 µM (inactive) | > 100 µM (inactive) | – | > 100 µM (inactive)
11 | CN(C(=O)C12C3(C(=O)C(C)(C)C)C4C5(C#N)C3C1(C(=O)C(C)(C)C)C5C42C(=O)C(C)(C)C)C(C)(C)C (centres undefined) | – | 16.6 µM (inactive) | > 50 µM (inactive) | – | > 50 µM (inactive) | 29.6 µM (inactive) | > 50 µM (inactive) | 16.1 µM (inactive) | > 50 µM (inactive) | – | > 50 µM (inactive) | > 50 µM (inactive) | > 50 µM (inactive) | 8.95 µM (inactive) | > 50 µM (inactive) | 38.9 µM (inactive) | > 50 µM (inactive)
12 | Cc1nc(-n2nc(-c3ccccc3)cc2-c2ccccc2)sc1C(=O)CC(=O)C(=O)Nc1ccc(Cl)c(Cl)c1 | – | 41.3 µM (inactive) | 78.2 µM (inactive) | > 100 µM (inactive) | > 100 µM (inactive) | 77.1 µM (inactive) | > 100 µM (inactive) | > 100 µM (inactive) | – | – | > 100 µM (inactive) | 51.3 µM (inactive) | 53.8 µM (inactive) | 55 µM (inactive) | 65.9 µM (inactive) | 69.2 µM (inactive) | 40.7 µM (inactive)
13 | O=C(NCc1ccccc1)C1C(=O)C(=O)N(Cc2ccccc2)C1=O (centres undefined) | – | > 100 µM (inactive) | > 100 µM (inactive) | > 100 µM (inactive) | > 100 µM (inactive) | > 100 µM (inactive) | > 100 µM (inactive) | > 100 µM (inactive) | > 100 µM (inactive) | – | > 100 µM (inactive) | > 100 µM (inactive) | > 100 µM (inactive) | > 100 µM (inactive) | > 100 µM (inactive) | > 100 µM (inactive) | > 100 µM (inactive)
14 | CN(C)C(=S)/N=c1\sn(C)/c(=N\C(=S)N(C)C)n1C | – | – | 85.3 µM (inactive) | – | > 100 µM (inactive) | > 100 µM (inactive) | > 100 µM (inactive) | 25.1 µM (inactive) | 29.1 µM (inactive) | – | > 100 µM (inactive) | > 100 µM (inactive) | > 100 µM (inactive) | > 100 µM (inactive) | > 100 µM (inactive) | > 100 µM (inactive) | 65.6 µM (inactive)
15 | O=C1c2cc3c(cc2[C@@H]2NC4CCCC14O2)OCO3 (some centres undefined) | – | > 100 µM (inactive) | > 100 µM (inactive) | > 100 µM (inactive) | > 100 µM (inactive) | > 100 µM (inactive) | > 100 µM (inactive) | > 100 µM (inactive) | > 100 µM (inactive) | – | > 100 µM (inactive) | > 100 µM (inactive) | > 100 µM (inactive) | > 100 µM (inactive) | > 100 µM (inactive) | > 100 µM (inactive) | > 100 µM (inactive)
16 | COC(=O)[C@]12CC=C3O[C@@H]4OC5(CCCCC5)O[C@@H]4C3[C@@H]1C(=O)CCC2=O (some centres undefined) | – | > 100 µM (inactive) | > 100 µM (inactive) | > 100 µM (inactive) | > 100 µM (inactive) | > 100 µM (inactive) | > 100 µM (inactive) | > 100 µM (inactive) | > 100 µM (inactive) | – | > 100 µM (inactive) | > 100 µM (inactive) | > 100 µM (inactive) | > 100 µM (inactive) | > 100 µM (inactive) | 36.5 µM (inactive) | > 100 µM (inactive)
17 | C=C(CO)CC(O)c1ccccc1 (centres undefined) | – | > 100 µM (inactive) | > 100 µM (inactive) | > 100 µM (inactive) | > 100 µM (inactive) | > 100 µM (inactive) | > 100 µM (inactive) | > 100 µM (inactive) | > 100 µM (inactive) | – | > 100 µM (inactive) | > 100 µM (inactive) | > 100 µM (inactive) | > 100 µM (inactive) | > 100 µM (inactive) | > 100 µM (inactive) | > 100 µM (inactive)
18 | O=C(c1cc2c(C(F)(F)F)onc2c2ccccc12)C(F)(F)F | – | 0.34 µM (active) | 0.371 µM (active) | 3.4 µM (inactive) | 2.44 µM (inactive) | 1.7 µM (inactive) | 1.78 µM (inactive) | 0.984 µM (active) | 4.16 µM (inactive) | – | 2.74 µM (inactive) | 12.3 µM (inactive) | 6.9 µM (inactive) | 1.16 µM (inactive) | 2.68 µM (inactive) | 2.22 µM (inactive) | 12.7 µM (inactive)
19 | c1cc(-c2cn3c(n2)SCC3)ccn1 | – | > 61.4 µM (inactive) | > 73.3 µM (inactive) | > 100 µM (inactive) | > 100 µM (inactive) | > 100 µM (inactive) | > 100 µM (inactive) | > 38.1 µM (inactive) | > 100 µM (inactive) | – | > 100 µM (inactive) | > 100 µM (inactive) | > 100 µM (inactive) | > 100 µM (inactive) | > 25.2 µM (inactive) | > 100 µM (inactive) | > 100 µM (inactive)
